{
  "source": "patent US20070167528A1",
  "about": "“Methods of treating hepatocellular carcinoma with denspm” (Genzyme Corporation, priority 2004, published 2007)",
  "key": {"[1]": {"details": "stated as known effect of DENSPM; cited from earlier work"}, "[2]": {"assay": "Physical and chemical stability of DENSPM preparations at room temperature", "assay_type": "physicochemical", "description": "DENSPM may be supplied as a lyophilized powder, for example packaged in 10 mL clear glass vials containing 215 mg. Such a lyophilized powder may be prepared by dissolving DENSPM hydrochloride in sterile WFI to provide a 5% solution. Such solution may be pH adjusted to a pH of preferably between about 5.8 and 6.2, most preferably 6.0, with 2N NaOH. 4.3 ml of this solution is sterile filled into the glass vials thru Millipak (R) 0.45 and 0.22 micron filters and then lyophilized. […] DENSPM is reconstituted with 4.3 mL of water for injection, USP. The resulting solution contains 50 mg/mL of DENSPM and is chemically and physically stable for up to approximately 96 hours at room temperature. When further diluted in 50 mL normal saline, the resulting admixture is chemically and physically stable for up to 24 hours when stored at room temperature. After reconstitution, the drug is normally used within 8 hours because it contains no preservatives."}, "[3]": {"assay": "Solubility of DENSPM hydrochloride salt in sterile water for injection", "assay_type": "physicochemical", "details": "as its hydrochloride salt", "excerpt": "The terms “pharmaceutical composition” and “pharmaceutical preparation” are used interchangeably herein to mean DENSPM in association with a pharmaceutically-acceptable carrier. Excipients and/or adjuvants may optionally be added to the pharmaceutical preparations. DENSPM preparations may be conveniently provided in unit dosage form and may be prepared by methods well-known in the art of pharmacy. Formulations suitable for intravenous administration are preferred. […] Such a solution may be filled into individual dose vials and lyophilized for future reconstitution and administration."}},
  "data": [
    {"smiles": "CCNCCCNCCCNCCCNCC", "note": "[DENSPM, N,N′-Bis[3-(ethylamino)propyl],1,3-propanediamine]", "values": [
      {"measurement": "serum creatinine levels", "setting": "[1]", "value": "transiently and reversibly elevate serum creatinine levels"},
      {"measurement": "chemical and physical stability of diluted admixture", "setting": "[2]; further diluted in 50 mL normal saline, stored at room temperature", "value": "up to 24 hours"},
      {"measurement": "physical and chemical stability of lyophilized powder", "setting": "[2]; lyophilized powder from 5% DENSPM hydrochloride solution, pH about 6.0, stored at room temperature", "value": "physically and chemically stable"},
      {"measurement": "chemical and physical stability of reconstituted solution", "setting": "[2]; reconstituted with 4.3 mL water for injection, 50 mg/mL, room temperature", "value": "≤ 96", "unit": "h"},
      {"measurement": "solubility", "setting": "[3]", "value": "relatively high solubility"}
    ]}
  ]
}
